Reference: US8329645B2, “Polymyxin derivatives and uses thereof” (priority 2008, dated 2012)
≈ marks a conversion by molar mass, not a printed value. Where a SMILES comes first, the peptide text is derived from it. Bridges are numbered along the chain shown (N, C = ends). [ ]: non-standard residue; d: D form. The star is where a group is joined. Decanoyl = CCCCCCCCCC(=O)*; Octanoyl = CCCCCCCC(=O)*; Dab = NCC[C@H](N)C(=O)O; Abu = CC[C@H](N)C(=O)O

Columns and labels:
[1] = test system: E. coli F18; format: cell-based, Escherichia coli
Description: The MIC values of NAB 739, NAB 740, and NAB7061 were determined by using the agar dilution method according to the CLSI protocol M7-A7. Polymyxin B sulfate (Sigma-Aldrich, St. Louis, Mo., USA) was used as a control. […]; two-fold increments) of the test substances were used. The bacterial test strains originated from ATCC (10 strains), CCUG (11 strains), and NCTC (3 strains). Fourteen (14) strains (the F-strains) were purchased from Mobidiag Ltd., Helsinki, Finland. Besides bacteria, the MIC was also determined for the yeast Candida albicans (ATCC 28366 from ATCC).
The inocula were prepared by adjusting the bacterial suspensions to a density equivalent to OD546 nm˜0.3 (˜10^8 CFU/ml˜0.5 McFarland) the yeast suspension to a density equivalent to OD546 nm˜0.75 (˜2×10^7 CFU/ml)._The suspensions were diluted to 10^7 CFU/ml. The plates were inoculated by using a Denley Multipoint Inoculator, 1 μl per spot corresponding to approx. 10^4 CFU/spot. Plates were incubated for 16-20 hours at 35° C.

[2] = test system: E. coli ATCC25922
In short: (§1)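 E-strip MIC determination, run as instructed by the manufacturer.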

[3] = test system: K. pneumoniae ATCC13883
In short: as §1

[4] = Two-week intravenous toxicity study in young rats; format: in vivo; conditions: for lowest dose that negatively influenced the body weight gain: intravenously twice a day for two weeks
Description: Toxicity in young rats (weighing approx. 150 g in the beginning of the study) was determined by administering doses (1, 2, 4, 8, 16, and 32 mg/kg per day) of NAB7061 as well as the control compound polymyxin B intravenously twice (2) a day for two weeks. A group of ten (10) rats was studied for each dosage regimen. Clinical observations were made daily, the body weight measured twice weekly, and the food consumption twice weekly. In the end of week 2, all animals were sacrificed.
Histopathology of kidneys was performed for each animals and histopathology of all tissues was performed in three high-dose groups receiving NAB7061.

[5] = test system: A. baumannii ATCC 19606; assay: Sensitization to rifampin: growth inhibition around wells on LB plates containing rifampin; format: cell-based, Acinetobacter baumannii; conditions: 4 μg
[6] = test system: E. coli strains; format: cell-based, Escherichia coli
Description: Polymyxin B sulfate (Sigma-Aldrich, St. Louis, Mo., USA) was used as a control. […] Fourteen (14) strains (the F-strains) were purchased from Mobidiag Ltd., Helsinki, Finland. Besides bacteria, the MIC was also determined for the yeast Candida albicans (ATCC 28366 from ATCC). The inocula were prepared by adjusting the bacterial suspensions to a density equivalent to OD546 nm˜0.3 (˜10^8 CFU/ml˜0.5 McFarland) the yeast suspension to a density equivalent to OD546 nm˜0.75 (˜2×10^7 CFU/ml)._The suspensions were diluted to 10^7 CFU/ml. The plates were inoculated by using a Denley Multipoint Inoculator, 1 μl per spot corresponding to approx. 10^4 CFU/spot. Plates were incubated for 16-20 hours at 35° C. […] Both agents had good activity also against other polymyxin-susceptible strains of Enterobacteriaceae. […] S. aureus and C. albicans were resistant to the NAB peptides.

[7] = test system: E. coli IH3080 (O18:K1); assay: Synergistic bactericidal activity with guinea pig serum (complement); format: cell-based, Escherichia coli
Description: The ability of NAB7061 to sensitize encapsulated, smooth strain of E. coli to the bactericidal action of normal guinea pig serum (GPS) was studied by the method described by Vaara et al. (1984). E. coli IH3080 (018,K1) was grown in LB broth (LB broth Lennox, Difco, BD, Sparks, Md., U.S.A) at 37° C. in a rotary shaker into early logarithmic growth phase, washed with PBS (phosphate-buffered saline, 8.0 g of NaCl, 0.2 g of KCl, 1.44 g of Na2HPO4×2H2O and 0.2 g of KH2PO4 per liter) and resuspended in PBS, to approx. 10^9 cells/ml). GPS was used as complement source. It was stored at −70° C. before use.
The experimental procedure was as follows. 10% GPS in PBS was inoculated with approx. 500 CFU (colony forming units) of bacteria per ml and pipetted in 0.2 ml aliquots into wells of microtiter plates. The wells already contained increasing amounts of NAB7061 in 0.020 ml of 0.9% NaCl. The plate was incubated at 37° C. for 2 h whereafter each well was emptied onto LB plates. The plates were incubated overnight at 37° C. and the developed colonies were counted.

Row | Molecule | MIC [1] [µg/mL] | Sensitization factor to antibiotic (MIC without / with 4 μg/ml of NAB 7061) ([2]; E. coli ATCC25922) | Sensitization factor to antibiotic (MIC without / with 4 μg/ml of NAB 7061) ([3]; K. pneumoniae ATCC13883) | lowest dose that negatively influenced the body weight gain ([4]; rats) [mg/kg per day] | growth inhibition around a well in the presence of rifampin ([5]; rifampin 0 μg/ml) [square millimeters] | growth inhibition around a well in the presence of rifampin ([5]; rifampin 0.3 μg/ml) [square millimeters] | MIC values, range for E. coli strains [6] [µg/mL] | growth inhibition around a well in the presence of rifampin ([5]; rifampin 0.1 μg/ml) [square millimeters] | MIC of NAB7061 ([2]; ATCC 25922) [µg/mL] | MIC of NAB7061 ([3]; ATCC 13883) [µg/mL] | rise of blood urea nitrogen (BUN) versus control or low dose group ([4]; 16 mg/kg per day, end of the study) | general pathology and histopathology of organs and kidneys ([4]; rats, two weeks) | % survival after 2-hour treatment at 37° C. ([7]; 10% GPS, heat inactivated, NAB7061 2 μg/ml) [%] | % survival after 2-hour treatment at 37° C. ([7]; 10% GPS, NAB7061 2 μg/ml) [%] | % survival after 2-hour treatment at 37° C. ([7]; 10% GPS, NAB7061 4 μg/ml) [%] | % survival after 2-hour treatment at 37° C. ([7]; none (PBS), NAB7061 2 μg/ml) [%]
1 | Polymyxin B [reference compound] | 0.5 | 5 | 1 | 1 |  |  |  |  |  |  |  |  |  |  |  | 
2 | CCCCCCCCCC(=O)N[C@H](C(=O)N[C@H](CO)C(=O)N[C@H]1CCNC(=O)[C@H]([C@@H](C)O)NC(=O)[C@H](CCN)NC(=O)[C@H](CCN)NC(=O)[C@H](CC(C)C)NC(=O)[C@@H](Cc2ccccc2)NC(=O)[C@H](CCN)NC1=O)[C@@H](C)O [NAB 740, DA-Thr-DSer-cy[Dab-Dab-DPhe-Leu-Dab-Dab-Thr-]] (Decanoyl-T[dS][Dab][Dab][dF]L[Dab][Dab]T; lactam 3-C) | 2 (≈ 1.81 µM) |  |  |  | 133 | 154 | 1 to 2 |  |  |  |  |  |  |  |  | 
3 | CCCCCCCC(=O)N[C@H](C(=O)N[C@H](CO)C(=O)N[C@H]1CCNC(=O)[C@H]([C@@H](C)O)NC(=O)[C@H](CCN)NC(=O)[C@H](CCN)NC(=O)[C@H](CC(C)C)NC(=O)[C@@H](Cc2ccccc2)NC(=O)[C@H](CCN)NC1=O)[C@@H](C)O [NAB 739, OA-Thr-DSer-cy[Dab-Dab-DPhe-Leu-Dab-Dab-Thr-]] (Octanoyl-T[dS][Dab][Dab][dF]L[Dab][Dab]T; lactam 3-C) | 1 (≈ 0.929 µM) |  |  |  | 113 | 314 | 0.5 to 1 | 177 |  |  |  |  |  |  |  | 
4 | CCCCCCCC(=O)N[C@H](C(=O)N[C@@H](CC)C(=O)N[C@H]1CCNC(=O)[C@H]([C@@H](C)O)NC(=O)[C@H](CCN)NC(=O)[C@H](CCN)NC(=O)[C@H](CC(C)C)NC(=O)[C@@H](Cc2ccccc2)NC(=O)[C@H](CCN)NC1=O)[C@@H](C)O [NAB 7061, OA-Thr-Abu-cy[Dab-Dab-DPhe-Leu-Dab-Dab-Thr-]] (Octanoyl-T[Abu][Dab][Dab][dF]L[Dab][Dab]T; lactam 3-C) | >32 |  |  | 8 | 0 | 50 |  |  | 16 | > 16 | no such a rise was found | No NAB7061-related pathological findings were found | 500 | 2 | 0 | 97
